Reference: article PMC12086093 (Nature Structural & Molecular Biology, 2025)

How the values were obtained:
[1] = biological target: T1, AasS (Vibrio harveyi, UniProt Q00IB3); assay: cryo-EM structure; format: binding; details: 2 mM MgCl2, 5 mM AMP-PNP; tetramer; ATP site
T1 sequence (Q00IB3 1-533): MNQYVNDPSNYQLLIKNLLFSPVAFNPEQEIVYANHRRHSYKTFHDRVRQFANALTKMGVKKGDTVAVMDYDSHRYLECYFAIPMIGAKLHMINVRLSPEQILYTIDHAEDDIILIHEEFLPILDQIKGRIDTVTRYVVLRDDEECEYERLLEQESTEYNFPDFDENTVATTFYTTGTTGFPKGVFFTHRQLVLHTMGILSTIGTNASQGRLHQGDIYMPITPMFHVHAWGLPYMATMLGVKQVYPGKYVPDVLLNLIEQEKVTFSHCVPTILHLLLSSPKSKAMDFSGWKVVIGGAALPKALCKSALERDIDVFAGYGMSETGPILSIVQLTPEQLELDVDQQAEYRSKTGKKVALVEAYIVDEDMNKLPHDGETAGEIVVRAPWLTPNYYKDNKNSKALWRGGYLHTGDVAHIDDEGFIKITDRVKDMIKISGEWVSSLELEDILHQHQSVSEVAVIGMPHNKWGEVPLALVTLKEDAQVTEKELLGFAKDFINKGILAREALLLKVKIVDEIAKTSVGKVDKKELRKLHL

[2] = biological target: T1, AasS; assay: cryo-EM structure; format: binding; details: 1.5 mM ATP, no Mg2+; hexamer; phosphate density not continuous
[3] = biological target: T1, AasS; assay: ITC, one set of sites; format: binding
[4] = biological target: the molecule itself; assay: SEC

With `Nc1ncnc2c1ncn2[C@@H]1O[C@H](COP(=O)(O)OP(=O)(O)NP(=O)(O)O)[C@@H](O)[C@H]1O` [AMP-PNP] the “cryo-EM structure (2.68 Å)” value [1] was “continuous density for the bound AMP-PNP cofactor”.

In the case of `Nc1ncnc2c1ncn2[C@@H]1O[C@H](COP(=O)(O)OP(=O)(O)OP(=O)(O)O)[C@@H](O)[C@H]1O` [ATP], the “cryo-EM structure (2.45 Å)” value [2] is reported as “the cryo-EM structure of ATP-liganded AasS remains a hexamer ring”.

In the case of `CCOC(=O)CCCCCC(=O)O` [E-pim], the Kd [3] is reported as roughly 6.45 µM.

B1: Vibrio harveyi acyl-ACP synthetase AasS, recombinant with an N-terminal 6xHis-tag (enzyme, UniProt Q00IB3 1-533, looked up)
chain: T1 sequence (Q00IB3 1-533)
For B1, the “stoichiometry N” value [4] was 6.
